# Positions of bridges follow the written chain, without caps; N, C: chain ends. Non-standard residues stand in square brackets, D forms with d. Residues, ends and D or L forms follow the SMILES beside them. Nle = CCCC[C@H](N)C(=O)O
# What was measured:
# [1] = test system: Th1 lymphocytes (CD3+, CD4+, CXCR3+, CCR6-) of MS patients; assay: Transwell migration assay with PBMC of MS patients, Th1 cells; type: cell-based, human; details: PBMC of treatment-naive MS patients; mean ± SD, 4 independent measurements; p = 0.048
# Procedure: (§1) 5 Activity of the novel VhTI-pep 2 and pepitem on patient lymphocytes. PPBMCs were isolated from the blood of MS patients with a very recent disease flare receiving no immunosuppressive or immunomodulatory treatment in the past. The effect of the linear pepitem and VhTI-pep 2 was tested for the T-cell populations (A) CD3^+, (B) Th1, (C) CD4^+, (D) memory CD4^+, (E) CD8^+, and (F) memory CD8^+ cells. Data are shown as mean ± SD for 4 independent measurements. Statistical analysis was performed on the level of total counted cells using repeated measures one-way ANOVA with Dunnett’s post hoc test. Statistical significance is indicated as n.s. (not significant), * p < 0.05; ** p < 0.01; *** p < 0.001.
# (§2) Human microvascular endothelial cells (HMEC-1 cells, Cytion, Eppelheim, Germany) were cultured in MCDB-131 medium (with 2.2 g/L sodium bicarbonate, without L-glutamine, PAN-Biotech Aidenbach, Germany) supplemented with 10% fetal bovine serum (FBS, Capricorn Scientific, Ebsdorfergrund, Germany), 100 units/ml penicillin-streptomycin (Sigma-Aldrich) 10 ng/mL epidermal growth factor (BioLegend, San Diego, US), 1 μg/mL hydrocortisone (Sigma-Aldrich), and 10 mM L-glutamine (Sigma-Aldrich). For experiments, the cells were used between passage numbers 4–9. […]
# Serum stability assay = type: in vitro ADME; details: human serum of healthy donors, lipids removed by centrifugation, 37 °C, peptide 30-60 μM from 10-fold stock in PBS, followed over 48 h, urea/TFA quench, analytical RP-HPLC peak area vs time 0, one-phase decay fit; mean ± SD, n = 2 (pepitem n = 5); read-out: Serum t 1/2 (converted)
# Procedure: Stability of peptides in human serum was measured similarly to that previously described. In short, fresh blood from healthy donors was collected in serum collection tubes (Clot Activator Tube, Becton Dickinson, Plymouth, United Kingdom, […]) and incubated at 4 °C for 2 h to allow blood clotting. The serum was separated by centrifugation at 1000 × g for 10 min. To remove lipids from the serum, an additional centrifugation step was performed at 15,000 × g for 15 min at 4 °C, after which the serum was used for the stability assays. For this, the serum was prewarmed for 10 min at 37 °C before the addition of the test compounds. Peptides were prepared at a 10-fold concentration in PBS and diluted to a final concentration between 60 and 30 μM with the serum. The serum-peptide reaction mix was incubated at 37 °C, and 40 μL aliquots were taken at the indicated time points. To stop the reaction, samples were mixed with 40 μL of 6 M urea for 10 min on ice, followed by precipitation of serum proteins by the addition of 40 μL of 20% TFA and incubation for at least 10 min on ice. The precipitate was pelleted at 15,000 × g for 15 min, and 90 μL of the supernatant was freeze-dried. The dry material was resuspended in HPLC solvent A (0.1% TFA in ddH2O). Peptide quantification was performed using analytical HPLC. The remaining peptide relative to the starting point (time point 0) was calculated by peak integration to determine the area under the peak at the designated time points and further calculated in comparison to time point 0 min, which was set as 100%. To calculate the half-life of the peptides in human serum, data points were fitted with a one-phase decay equation.
# [2] = test system: CD3+ cells of MS patients; assay: Transwell migration assay with PBMC of MS patients, CD3+ cells; type: cell-based, human; details: PBMC of treatment-naive MS patients; p = 0.0008; repeated measures one-way ANOVA, Dunnett
# Procedure: as §1, §2
# [3] = test system: CD8+ cells of MS patients; assay: Transwell migration assay with PBMC of MS patients, CD8+ cells; type: cell-based, human; details: PBMC of treatment-naive MS patients; too few cells to test significance
# Procedure: as §1, §2
compound,measurement,setting,value
"CCCC[C@@H]1NC(=O)[C@H](C(C)C)NC(=O)[C@H](CCCCN)NC(=O)[C@@H](NC(=O)[C@H](CCC(N)=O)NC(=O)[C@H](CCC(=O)O)NC(C)=O)CSSC[C@@H](C(=O)N[C@@H](CCC(=O)O)C(=O)N[C@@H](CCCCN)C(N)=O)NC(=O)[C@H](CC(N)=O)NC(=O)[C@H](CC(=O)O)NC(=O)[C@H](CC(C)C)NC(=O)[C@@H]2CSSC[C@H](NC1=O)C(=O)N[C@@H](Cc1ccc(O)cc1)C(=O)N[C@@H](C)C(=O)N[C@@H](CCC(N)=O)C(=O)NCC(=O)N[C@@H](C)C(=O)N[C@@H](CCC(=O)O)C(=O)N[C@@H](CC(C)C)C(=O)N1CCC[C@H]1C(=O)N[C@@H](CCC(=O)O)C(=O)N[C@@H](CC(C)C)C(=O)N[C@@H](CC(C)C)C(=O)N[C@@H](CCCNC(=N)N)C(=O)N[C@@H](CCCNC(=N)N)C(=O)N2 [VhTI-pep 2] (Ac-EQCKV[Nle]CYAQGAELPELLRRCLDNCEK-NH2; disulfide 3-25, 7-21)",inhibition of migration of Th1 lymphocytes,[1],34.3 ± 11.4%
same,half-life,Serum stability assay,> 48 h
same,migration of CD3+ cells of MS patients (in words),[2],significantly reduced
same,migration of CD8+ cells of MS patients (in words),[3],positive trend
